Structures are written as SMILES.

The values below come from ChEMBL document CHEMBL5678818, “Discovery of potent SOS1 inhibitors that block RAS activation via disruption of the RAS-SOS1 interaction” (Proc Natl Acad Sci U S A, 2019).

In assay [1] the target is cAMP-dependent protein kinase catalytic subunit alpha (Homo sapiens) (UniProt P17612). Kind of assay: Inhibition of PKAC-alpha (unknown origin) assessed as residual activity at 1000 nM by KINOMEscan analysis relative to control.
For assay [2], the target named is Serine/threonine-protein kinase N2 (Homo sapiens) (UniProt Q16513). Description: Inhibition of PKN2 (unknown origin) assessed as residual activity at 1000 nM by KINOMEscan analysis relative to control.
Serine/threonine-protein kinase N2 (Homo sapiens), sequence (Q16513 whole entry, looked up): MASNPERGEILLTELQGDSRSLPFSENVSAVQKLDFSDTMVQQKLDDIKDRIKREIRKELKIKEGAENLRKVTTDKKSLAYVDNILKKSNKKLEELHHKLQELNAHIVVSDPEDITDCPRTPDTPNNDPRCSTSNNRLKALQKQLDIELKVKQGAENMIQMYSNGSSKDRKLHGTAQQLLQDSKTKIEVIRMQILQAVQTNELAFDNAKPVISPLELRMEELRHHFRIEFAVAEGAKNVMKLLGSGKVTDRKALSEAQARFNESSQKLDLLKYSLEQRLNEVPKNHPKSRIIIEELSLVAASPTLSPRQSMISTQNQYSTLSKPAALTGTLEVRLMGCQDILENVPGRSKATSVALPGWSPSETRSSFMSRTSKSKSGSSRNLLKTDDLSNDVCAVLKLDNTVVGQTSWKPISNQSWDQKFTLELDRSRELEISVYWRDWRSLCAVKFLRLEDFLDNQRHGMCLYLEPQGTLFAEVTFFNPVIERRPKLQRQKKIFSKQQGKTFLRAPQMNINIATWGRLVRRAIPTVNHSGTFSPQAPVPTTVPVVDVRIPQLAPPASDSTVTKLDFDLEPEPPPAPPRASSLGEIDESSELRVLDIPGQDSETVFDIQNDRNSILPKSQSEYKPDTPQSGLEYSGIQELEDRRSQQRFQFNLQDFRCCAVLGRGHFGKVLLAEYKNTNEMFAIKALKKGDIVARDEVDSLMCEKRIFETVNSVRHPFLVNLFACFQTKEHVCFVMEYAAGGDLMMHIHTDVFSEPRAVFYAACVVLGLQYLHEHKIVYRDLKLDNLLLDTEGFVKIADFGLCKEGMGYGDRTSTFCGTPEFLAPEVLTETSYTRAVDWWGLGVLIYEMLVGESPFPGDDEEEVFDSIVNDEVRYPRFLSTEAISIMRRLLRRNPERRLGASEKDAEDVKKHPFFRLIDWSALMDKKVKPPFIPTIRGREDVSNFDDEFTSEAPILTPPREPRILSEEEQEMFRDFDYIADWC
For assay [3], the target named is Tyrosine-protein kinase Tec (Homo sapiens) (UniProt P42680). Description: Inhibition of TEC (unknown origin) assessed as residual activity at 1000 nM by KINOMEscan analysis relative to control.
Tyrosine-protein kinase Tec (Homo sapiens), sequence (P42680 whole entry, looked up): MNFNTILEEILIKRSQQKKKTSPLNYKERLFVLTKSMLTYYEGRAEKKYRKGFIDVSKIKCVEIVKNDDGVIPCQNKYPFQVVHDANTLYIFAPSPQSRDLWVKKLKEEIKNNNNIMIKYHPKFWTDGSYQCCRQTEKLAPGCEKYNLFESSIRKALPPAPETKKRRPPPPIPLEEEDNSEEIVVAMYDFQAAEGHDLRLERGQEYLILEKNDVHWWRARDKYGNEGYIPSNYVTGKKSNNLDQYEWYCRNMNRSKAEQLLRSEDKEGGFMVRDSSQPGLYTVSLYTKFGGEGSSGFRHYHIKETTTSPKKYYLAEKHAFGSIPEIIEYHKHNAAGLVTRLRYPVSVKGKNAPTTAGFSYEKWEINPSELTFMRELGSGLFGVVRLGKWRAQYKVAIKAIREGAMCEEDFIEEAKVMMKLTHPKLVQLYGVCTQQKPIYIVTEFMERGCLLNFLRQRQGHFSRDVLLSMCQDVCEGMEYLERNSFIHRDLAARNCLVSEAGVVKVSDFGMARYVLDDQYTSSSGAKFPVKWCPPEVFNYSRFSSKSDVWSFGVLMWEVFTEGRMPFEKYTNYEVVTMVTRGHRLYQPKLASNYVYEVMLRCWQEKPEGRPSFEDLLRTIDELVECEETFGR
Assay [4] deals with Vascular endothelial growth factor receptor 1 (Homo sapiens) (UniProt P17948). Kind of assay: Inhibition of FLT1 (unknown origin) assessed as residual activity at 1000 nM by KINOMEscan analysis relative to control.
Vascular endothelial growth factor receptor 1 (Homo sapiens), sequence (P17948 whole entry): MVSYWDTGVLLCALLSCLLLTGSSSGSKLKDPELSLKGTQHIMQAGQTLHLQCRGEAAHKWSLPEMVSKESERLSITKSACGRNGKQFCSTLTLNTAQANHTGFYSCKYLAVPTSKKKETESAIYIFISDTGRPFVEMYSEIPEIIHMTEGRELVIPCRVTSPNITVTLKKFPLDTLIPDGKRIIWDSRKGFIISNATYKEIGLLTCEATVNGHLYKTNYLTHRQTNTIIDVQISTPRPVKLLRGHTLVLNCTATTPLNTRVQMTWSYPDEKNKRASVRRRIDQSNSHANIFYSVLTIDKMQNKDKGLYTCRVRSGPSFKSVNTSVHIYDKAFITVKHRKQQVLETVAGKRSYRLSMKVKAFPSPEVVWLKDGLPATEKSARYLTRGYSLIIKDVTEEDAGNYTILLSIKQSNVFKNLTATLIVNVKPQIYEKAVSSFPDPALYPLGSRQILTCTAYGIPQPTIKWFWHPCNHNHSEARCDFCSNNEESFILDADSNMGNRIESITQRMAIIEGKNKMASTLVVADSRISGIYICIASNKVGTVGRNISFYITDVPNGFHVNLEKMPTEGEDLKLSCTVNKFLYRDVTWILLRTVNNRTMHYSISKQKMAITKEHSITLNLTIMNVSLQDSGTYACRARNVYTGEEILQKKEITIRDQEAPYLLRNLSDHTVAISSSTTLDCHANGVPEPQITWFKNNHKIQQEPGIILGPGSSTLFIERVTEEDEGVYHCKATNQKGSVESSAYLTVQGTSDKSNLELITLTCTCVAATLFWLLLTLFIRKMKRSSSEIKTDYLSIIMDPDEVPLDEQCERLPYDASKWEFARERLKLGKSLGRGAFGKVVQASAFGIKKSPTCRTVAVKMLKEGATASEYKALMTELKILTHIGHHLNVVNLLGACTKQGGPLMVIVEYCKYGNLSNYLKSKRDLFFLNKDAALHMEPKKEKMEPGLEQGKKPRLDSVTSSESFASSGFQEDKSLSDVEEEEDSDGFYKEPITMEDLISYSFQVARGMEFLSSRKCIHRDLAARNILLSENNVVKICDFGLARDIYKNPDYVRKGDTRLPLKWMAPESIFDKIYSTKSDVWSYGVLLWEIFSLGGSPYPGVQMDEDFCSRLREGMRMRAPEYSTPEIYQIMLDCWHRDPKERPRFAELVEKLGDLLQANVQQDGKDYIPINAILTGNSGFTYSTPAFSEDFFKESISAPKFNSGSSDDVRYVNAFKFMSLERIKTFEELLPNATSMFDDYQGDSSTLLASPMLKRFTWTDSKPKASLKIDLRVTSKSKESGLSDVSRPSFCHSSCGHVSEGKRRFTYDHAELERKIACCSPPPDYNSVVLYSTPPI
Assay [5] concerns Tyrosine-protein kinase ABL1 (Homo sapiens), P00519 [H396P]. Description: Inhibition of phosphorylated ABL1 H396P mutant (unknown origin) assessed as residual activity at 1000 nM by KINOMEscan analysis relative to control.
Assay [6] concerns Phosphatidylinositol 4,5-bisphosphate 3-kinase catalytic subunit alpha isoform (Homo sapiens), P42336 [M1043I]. Description: Inhibition of PIK3CA M1043I mutant (unknown origin) assessed as residual activity at 1000 nM by KINOMEscan analysis relative to control.
Assay [7] has as its target Serine/threonine-protein kinase N1 (Homo sapiens) (UniProt Q16512). Kind of assay: Inhibition of PKN1 (unknown origin) assessed as residual activity at 1000 nM by KINOMEscan analysis relative to control.
Assay [8] has as its target Mitogen-activated protein kinase 4 (Homo sapiens) (UniProt P31152). Description: Inhibition of ERK4 (unknown origin) assessed as residual activity at 1000 nM by KINOMEscan analysis relative to control.
Assay [9] concerns the target Serine/threonine-protein kinase MAK (Homo sapiens) (UniProt P20794). Description: Inhibition of MAK (unknown origin) assessed as residual activity at 1000 nM by KINOMEscan analysis relative to control.
The target of assay [10] is Transient receptor potential cation channel subfamily M member 6 (Homo sapiens) (UniProt Q9BX84). Description: Inhibition of TRPM6 (unknown origin) assessed as residual activity at 1000 nM by KINOMEscan analysis relative to control.
For assay [11], the target named is T1, Serine/threonine-protein kinase TAO2 (Homo sapiens) (UniProt Q9UL54).
T1 sequence (whole entry): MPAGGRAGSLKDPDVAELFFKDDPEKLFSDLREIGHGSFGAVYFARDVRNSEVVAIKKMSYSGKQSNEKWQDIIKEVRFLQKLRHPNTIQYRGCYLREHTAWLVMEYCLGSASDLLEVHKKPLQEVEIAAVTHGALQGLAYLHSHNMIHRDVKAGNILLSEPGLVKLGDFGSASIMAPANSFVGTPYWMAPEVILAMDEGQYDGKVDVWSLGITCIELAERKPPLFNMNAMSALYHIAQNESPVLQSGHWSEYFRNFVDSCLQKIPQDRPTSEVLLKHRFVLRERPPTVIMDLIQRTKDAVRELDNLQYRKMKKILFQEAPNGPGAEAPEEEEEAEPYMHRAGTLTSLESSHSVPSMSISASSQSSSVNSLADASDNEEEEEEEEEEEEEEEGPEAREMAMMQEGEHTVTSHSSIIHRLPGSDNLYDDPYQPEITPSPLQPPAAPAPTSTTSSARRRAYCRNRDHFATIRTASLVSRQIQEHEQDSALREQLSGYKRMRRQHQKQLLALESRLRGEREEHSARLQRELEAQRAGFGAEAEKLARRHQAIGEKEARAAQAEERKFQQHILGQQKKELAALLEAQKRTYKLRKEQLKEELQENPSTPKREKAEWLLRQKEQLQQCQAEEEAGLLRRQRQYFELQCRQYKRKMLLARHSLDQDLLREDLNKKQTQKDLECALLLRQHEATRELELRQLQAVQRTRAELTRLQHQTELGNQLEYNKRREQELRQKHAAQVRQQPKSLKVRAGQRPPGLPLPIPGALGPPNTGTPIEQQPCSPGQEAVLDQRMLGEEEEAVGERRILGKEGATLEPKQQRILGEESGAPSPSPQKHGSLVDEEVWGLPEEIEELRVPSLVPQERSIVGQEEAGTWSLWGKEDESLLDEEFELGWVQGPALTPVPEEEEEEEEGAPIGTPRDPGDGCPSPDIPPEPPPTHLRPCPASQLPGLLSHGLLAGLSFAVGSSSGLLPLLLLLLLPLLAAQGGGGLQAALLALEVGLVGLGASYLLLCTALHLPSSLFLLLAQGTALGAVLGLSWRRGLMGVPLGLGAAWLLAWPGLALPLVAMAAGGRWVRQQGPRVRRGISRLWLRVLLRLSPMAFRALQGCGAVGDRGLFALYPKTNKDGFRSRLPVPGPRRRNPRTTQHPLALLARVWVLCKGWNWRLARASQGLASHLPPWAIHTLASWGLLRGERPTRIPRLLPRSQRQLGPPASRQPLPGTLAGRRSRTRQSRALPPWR
Kind of assay: Inhibition of TAOK2 (unknown origin) assessed as residual activity at 1000 nM by KINOMEscan analysis relative to control.

For assay [12], the target named is T2, Tyrosine-protein kinase ZAP-70 (Homo sapiens) (UniProt P43403).
T2 sequence (whole entry): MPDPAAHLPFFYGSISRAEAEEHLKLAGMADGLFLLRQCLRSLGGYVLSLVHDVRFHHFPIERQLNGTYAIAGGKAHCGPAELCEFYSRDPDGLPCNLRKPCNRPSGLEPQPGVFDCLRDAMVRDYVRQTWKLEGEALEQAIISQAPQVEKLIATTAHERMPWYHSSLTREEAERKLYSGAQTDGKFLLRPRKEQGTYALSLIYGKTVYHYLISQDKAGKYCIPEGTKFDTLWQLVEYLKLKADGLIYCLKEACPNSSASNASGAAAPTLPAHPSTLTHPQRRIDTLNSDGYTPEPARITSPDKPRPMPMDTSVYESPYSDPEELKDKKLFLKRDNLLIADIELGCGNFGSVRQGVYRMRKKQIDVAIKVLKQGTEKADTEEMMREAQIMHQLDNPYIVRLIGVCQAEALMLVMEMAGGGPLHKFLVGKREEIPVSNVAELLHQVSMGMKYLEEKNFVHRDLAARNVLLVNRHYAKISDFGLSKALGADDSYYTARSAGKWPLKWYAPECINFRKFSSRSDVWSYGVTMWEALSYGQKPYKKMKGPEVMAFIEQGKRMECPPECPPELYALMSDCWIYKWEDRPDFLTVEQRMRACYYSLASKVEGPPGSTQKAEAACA
Kind of assay: Inhibition of ZAP70 (unknown origin) assessed as residual activity at 1000 nM by KINOMEscan analysis relative to control.

In assay [13] the target is Dual specificity testis-specific protein kinase 1 (Homo sapiens) (UniProt Q15569). Kind of assay: Inhibition of TESK1 (unknown origin) assessed as residual activity at 1000 nM by KINOMEscan analysis relative to control.
Dual specificity testis-specific protein kinase 1 (Homo sapiens), sequence (Q15569 whole entry, looked up): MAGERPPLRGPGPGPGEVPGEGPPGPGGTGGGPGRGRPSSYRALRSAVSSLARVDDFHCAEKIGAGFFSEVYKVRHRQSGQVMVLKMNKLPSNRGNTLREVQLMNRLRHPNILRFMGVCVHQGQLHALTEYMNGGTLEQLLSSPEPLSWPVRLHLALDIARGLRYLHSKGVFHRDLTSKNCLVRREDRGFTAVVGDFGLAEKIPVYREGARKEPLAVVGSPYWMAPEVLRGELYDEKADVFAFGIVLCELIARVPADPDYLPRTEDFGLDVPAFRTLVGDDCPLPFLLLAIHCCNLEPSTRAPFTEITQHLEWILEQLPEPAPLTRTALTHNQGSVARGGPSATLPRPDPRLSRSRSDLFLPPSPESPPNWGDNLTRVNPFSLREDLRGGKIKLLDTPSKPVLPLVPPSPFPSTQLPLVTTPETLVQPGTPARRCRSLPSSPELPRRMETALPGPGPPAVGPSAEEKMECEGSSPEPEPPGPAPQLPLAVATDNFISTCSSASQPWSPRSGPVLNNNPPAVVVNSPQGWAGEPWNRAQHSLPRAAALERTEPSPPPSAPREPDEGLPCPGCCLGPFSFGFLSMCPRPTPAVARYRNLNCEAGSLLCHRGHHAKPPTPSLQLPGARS

Serine/threonine-protein kinase N1 (Homo sapiens), sequence (Q16512 2-942 limits assumed): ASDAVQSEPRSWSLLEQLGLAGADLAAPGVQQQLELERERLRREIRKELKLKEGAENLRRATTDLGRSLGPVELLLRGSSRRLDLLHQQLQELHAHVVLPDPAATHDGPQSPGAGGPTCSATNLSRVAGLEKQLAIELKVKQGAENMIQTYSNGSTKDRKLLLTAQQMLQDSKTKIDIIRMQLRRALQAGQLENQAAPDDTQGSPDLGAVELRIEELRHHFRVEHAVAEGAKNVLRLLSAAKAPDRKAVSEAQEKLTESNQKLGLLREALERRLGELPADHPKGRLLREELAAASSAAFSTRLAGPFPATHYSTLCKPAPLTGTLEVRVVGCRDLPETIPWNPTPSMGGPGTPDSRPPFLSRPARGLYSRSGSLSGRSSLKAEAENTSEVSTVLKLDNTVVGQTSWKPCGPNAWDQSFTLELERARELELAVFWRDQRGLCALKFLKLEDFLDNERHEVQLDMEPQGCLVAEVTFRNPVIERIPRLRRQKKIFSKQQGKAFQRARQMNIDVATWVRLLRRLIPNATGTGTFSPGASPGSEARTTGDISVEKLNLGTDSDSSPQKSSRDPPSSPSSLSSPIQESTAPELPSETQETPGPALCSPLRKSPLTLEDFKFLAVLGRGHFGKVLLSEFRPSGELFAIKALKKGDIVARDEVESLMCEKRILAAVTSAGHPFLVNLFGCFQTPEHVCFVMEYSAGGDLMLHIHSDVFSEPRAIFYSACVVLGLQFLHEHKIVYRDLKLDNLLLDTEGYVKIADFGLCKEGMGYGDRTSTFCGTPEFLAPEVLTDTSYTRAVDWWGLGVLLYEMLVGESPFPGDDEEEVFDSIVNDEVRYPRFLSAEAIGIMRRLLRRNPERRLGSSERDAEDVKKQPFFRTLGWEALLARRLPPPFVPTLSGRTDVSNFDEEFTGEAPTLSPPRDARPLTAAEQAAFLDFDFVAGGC

On to `COc1cc2nc(C)nc(N[C@H](C)c3cccc(-c4cn[nH]c4)c3)c2cc1OC`, for which the Activity in [1] is 97%; in assay [2], 78%; in assay [3], 85%; in assay [4] it was 71%; in assay [5] it was 91%; in [6] it was 100%. Also, the Activity in [7] was found to be 100%; in assay [8], 92%; in assay [9], 80%; in assay [10] it was 84%; in assay [11], 78%; in assay [12], 82%. The Activity in [13] was 100%.
Turning to `COc1cc2ncnc(N[C@H](C)c3cccc4ccccc34)c2cc1OC`, the Activity came to 95% in [1]; 100% in assay [2]; 98% in [3]; 96% in [4]; 93% in assay [5]; 92% in [6]. The Activity came out at 97% in assay [7]; 89% in [8]; 100% in assay [9]; 100% in [10]; 90% in assay [11]; 97% in assay [12]. For the same compound, in assay [13], the Activity stood at 96%.
